Test results published in ChEMBL document CHEMBL1132639, “2-Amino-4-benzyl-4,5,6,7-tetrahydrothiazolo[5,4-c]pyridines: novel selective beta3-adrenoceptor agonists” (J Med Chem, 1999).
Each block holds one compound with its values, some of them ahead of it. Active and inactive are the calls of the source. The rule behind the calls is not given here.

Experiments:
[1] = target: T1, Beta-3 adrenergic receptor (Homo sapiens, UniProt P13945); settings: ovary
Target sequence in this assay (P13945 whole entry, looked up): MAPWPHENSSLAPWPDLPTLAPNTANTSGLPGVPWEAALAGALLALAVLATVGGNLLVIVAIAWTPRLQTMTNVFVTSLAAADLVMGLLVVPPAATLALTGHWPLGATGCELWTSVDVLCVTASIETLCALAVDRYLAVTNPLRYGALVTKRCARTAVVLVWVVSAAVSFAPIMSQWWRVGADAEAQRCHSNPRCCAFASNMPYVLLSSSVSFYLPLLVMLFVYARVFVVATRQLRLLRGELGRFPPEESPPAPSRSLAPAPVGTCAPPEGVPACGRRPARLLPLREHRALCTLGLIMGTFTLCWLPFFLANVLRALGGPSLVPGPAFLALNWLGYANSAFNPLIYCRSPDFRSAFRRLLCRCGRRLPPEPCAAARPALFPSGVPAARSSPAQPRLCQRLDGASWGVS
Description: Drug concentration which produces cAMP response equal to 50% of its maximal response against human beta-3-adrenoceptor expressed in chinese hamster ovary cells was determined

[2] = target: T1, Beta-3 adrenergic receptor; experiment: Binding Affinity against human Beta-3 adrenergic receptor expressed in Chinese hamster ovary(CHO) cells was measured by using [125I]ICYP radioligand; type: cell-based
Target sequence in this assay (P13945 whole entry): as the sequence (P13945 whole entry, looked up) above

[3] = target: Beta-1 adrenergic receptor (Homo sapiens) (UniProt P08588); settings: ovary
Description: Drug concentration which produces cAMP response equal to 50% of its maximal response against human beta-1-adrenoceptor in chinese hamster ovary cells was determined

[4] = target: Beta-2 adrenergic receptor (Homo sapiens) (UniProt P07550); settings: ovary
[5] = target: Beta-2 adrenergic receptor (Homo sapiens) (UniProt P07550); experiment: Drug concentration which produces cAMP response equal to 50% of its maximal response against human beta-2-adrenoceptor in chinese hamster ovary cells was determined; Not active; type: functional, cell-based
[6] = target: T1, Beta-3 adrenergic receptor; experiment: Drug concentration which produces cAMP response equal to 50% of its maximal response against human beta-3-adrenoceptor in chinese hamster ovary cells was determined; Not active; type: functional, cell-based
Target sequence in this assay (P13945 whole entry, looked up): as above

[7] = target: T1, Beta-3 adrenergic receptor; experiment: Intrinsic activity expressed as the percentage of maximal analogue response relative to the maximal response(100%) of isoproterenol against human beta-3-adrenoceptor using CRE-LUC assay; type: functional
Target sequence in this assay (P13945 whole entry, looked up): as above

[8] = target: Beta-1 adrenergic receptor (Homo sapiens) (UniProt P08588); experiment: Intrinsic activity expressed as the percentage of maximal analogue response relative to the maximal response(100%) of isoproterenol against human beta-1-adrenoceptor using CRE-LUC assay; type: functional
[9] = target: Beta-1 adrenergic receptor (Homo sapiens) (UniProt P08588); settings: ovary; remark: listed apart in the source
[10] = target: T1, Beta-3 adrenergic receptor; experiment: Intrinsic activity expressed as the percentage of maximal analogue response relative to the maximal response(100%) of isoproterenol against human beta-3-adrenoceptor; type: functional
Target sequence in this assay (P13945 whole entry, looked up): as above

[11] = target: Beta-1 adrenergic receptor (Homo sapiens) (UniProt P08588); experiment: Intrinsic activity expressed as the percentage of maximal analogue response relative to the maximal response(100%) of isoproterenol against human beta-1-adrenoceptor; type: functional
[12] = target: T1, Beta-3 adrenergic receptor; experiment: Drug concentration which produces a cAMP response equal to 50% of its maximal response against human beta-3-adrenoceptor using CRE-LUC assay; type: functional
Target sequence in this assay (P13945 whole entry, looked up): as above

[13] = target: T1, Beta-3 adrenergic receptor; experiment: Drug concentration which produces cAMP response equal to 50% of its maximal response against human beta 3-adrenoceptor in chinese hamster ovary cells was determined; type: functional, cell-based
Target sequence in this assay (P13945 whole entry, looked up): as above

[14] = target: Beta-1 adrenergic receptor (Homo sapiens) (UniProt P08588)
[15] = target: Beta-2 adrenergic receptor (Homo sapiens) (UniProt P07550)
[16] = target: Beta-2 adrenergic receptor (Homo sapiens) (UniProt P07550); settings: ovary; remark: listed apart in the source

Sequence of Beta-1 adrenergic receptor (Homo sapiens) (P08588 whole entry, looked up): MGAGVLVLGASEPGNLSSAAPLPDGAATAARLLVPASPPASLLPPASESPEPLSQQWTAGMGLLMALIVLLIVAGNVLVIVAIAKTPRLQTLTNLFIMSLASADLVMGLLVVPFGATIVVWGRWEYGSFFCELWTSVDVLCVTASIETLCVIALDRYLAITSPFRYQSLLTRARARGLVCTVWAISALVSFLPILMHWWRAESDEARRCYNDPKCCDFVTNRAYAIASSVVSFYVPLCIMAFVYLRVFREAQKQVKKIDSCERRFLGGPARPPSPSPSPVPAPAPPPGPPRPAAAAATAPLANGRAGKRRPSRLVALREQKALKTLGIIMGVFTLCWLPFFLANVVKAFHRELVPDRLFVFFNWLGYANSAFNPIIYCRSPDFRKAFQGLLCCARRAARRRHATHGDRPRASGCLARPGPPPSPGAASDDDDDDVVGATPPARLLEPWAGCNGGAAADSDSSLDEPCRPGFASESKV
Sequence of Beta-2 adrenergic receptor (Homo sapiens) (P07550 whole entry, looked up): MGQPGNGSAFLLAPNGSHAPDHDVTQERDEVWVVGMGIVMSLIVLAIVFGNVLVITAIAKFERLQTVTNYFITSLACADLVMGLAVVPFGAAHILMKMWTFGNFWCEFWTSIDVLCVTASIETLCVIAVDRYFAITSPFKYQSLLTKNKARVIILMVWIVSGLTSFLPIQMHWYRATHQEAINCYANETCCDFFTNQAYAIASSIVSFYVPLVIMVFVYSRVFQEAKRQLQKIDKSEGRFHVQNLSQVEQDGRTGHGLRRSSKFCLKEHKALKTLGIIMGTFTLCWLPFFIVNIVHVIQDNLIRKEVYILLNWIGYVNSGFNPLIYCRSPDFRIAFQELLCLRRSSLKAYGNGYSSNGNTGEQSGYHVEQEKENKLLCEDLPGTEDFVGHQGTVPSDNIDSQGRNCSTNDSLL

- pKact [5]: inactive
- Intrinsic activity [10]: 54
- Intrinsic activity [11]: < 10
- pKact [9]: inactive
- pKact [1]: 5.06
SMILES: COc1cc(CC2NCCc3nc(N)sc32)cc(OC)c1OC (stereo not drawn)

- pKact [3]: 8.7
- pKact [1]: 8.6
- pKact [4]: 8.33
SMILES: COc1cc(C[C@@H]2NCCc3cc(O)c(O)cc32)cc(OC)c1OC

- Intrinsic activity [7]: 62
- pKact [12]: 6.71
- pKact [13]: 6.95
- pKact [14]: inactive
- pKact [9]: inactive
- pKact [15]: inactive
- pKact [16]: inactive
SMILES: COc1c(I)cc(CC2NCCc3nc(N)sc32)cc1I (stereo not drawn)

Second part, the compound before the results:

SMILES: CC(C)NCC(O)c1ccc(O)c(O)c1 (stereo not drawn)
- pKact [1]: 7.37

SMILES: COc1c(I)cc(CC2NCCc3cc(O)c(O)cc32)cc1I (stereo not drawn)
- Ki [2]: 21.4 nM
- pKact [3]: 8.11
- pKact [1]: 8.76
- pKact [4]: 8.47

SMILES: COc1cc(CCNCCc2cnc(N)s2)cc(OC)c1OC
- pKact [5]: inactive
- pKact [6]: inactive
- Intrinsic activity [7]: < 10
- Intrinsic activity [8]: < 10
- pKact [9]: inactive

SMILES: COc1c(I)cc(CC2NCCc3nc(NC(C)=O)sc32)cc1I (stereo not drawn)
- pKact [5]: inactive
- pKact [6]: inactive
- pKact [9]: inactive
